Test results taken from the NIST ThermoML archive (doi:10.1021/je0342825).

Assays:
[1] = 101.3 kPa, Liquid
[2] = xn = mol fraction of the nth substance listed; conditions: 101.3 kPa, Liquid

CC(=O)O [acetic acid]
[1]
Conditions | mass density [kg/m3] | speed of sound [m/s] | viscosity [mPa·s]
293.15 K | 1049.3 | 1149 | 1.211
298.15 K | 1043.65 | 1132 | 1.115
303.15 K | 1038 | 1115 | 1.034

CC(=O)O [acetic acid] + O
[2]
Conditions | mass density, 293.15 K [kg/m3] | mass density, 298.15 K [kg/m3] | mass density, 303.15 K [kg/m3] | speed of sound, 293.15 K [m/s] | speed of sound, 298.15 K [m/s] | speed of sound, 303.15 K [m/s] | viscosity, 293.15 K [mPa·s] | viscosity, 298.15 K [mPa·s] | viscosity, 303.15 K [mPa·s]
x1 = 0.0503 | 1019.37 | 1017.24 | 1014.94 | 1528 | 1533 | 1537 | 1.304 | 1.151 | 1.023
x1 = 0.1009 | 1034.95 | 1032.04 | 1029.02 | 1537 | 1536 | 1535 | 1.578 | 1.385 | 1.226
x1 = 0.2018 | 1053.88 | 1050 | 1046.07 | 1509 | 1502 | 1494 | 2.031 | 1.777 | 1.571
x1 = 0.3006 | 1063.42 | 1058.83 | 1054.2 | 1465 | 1454 | 1443 | 2.355 | 2.053 | 1.809
x1 = 0.4015 | 1068.15 | 1063.42 | 1058.66 | 1418 | 1405 | 1392 | 2.559 | 2.232 | 1.965
x1 = 0.5012 | 1069.68 | 1064.77 | 1059.78 | 1373 | 1359 | 1344 | 2.652 | 2.316 | 2.046
x1 = 0.6005 | 1068.8 | 1063.48 | 1058.24 | 1329 | 1314 | 1299 | 2.627 | 2.3 | 2.029
x1 = 0.7004 | 1066.55 | 1061.22 | 1055.91 | 1286 | 1270 | 1254 | 2.417 | 2.129 | 1.89
x1 = 0.8017 | 1062.78 | 1057.34 | 1051.9 | 1243 | 1226 | 1210 | 2.077 | 1.85 | 1.656
x1 = 0.8996 | 1057.35 | 1051.8 | 1046.25 | 1199 | 1183 | 1166 | 1.666 | 1.503 | 1.367
x1 = 0.9523 | 1053.56 | 1047.96 | 1042.35 | 1175 | 1157 | 1140 | 1.416 | 1.294 | 1.19
x1 = 1 | 1049.3 | 1043.65 | 1038 | 1149 | 1132 | 1115 | 1.211 | 1.115 | 1.034

CCO [ethanol]
[1]
Conditions | mass density [kg/m3] | speed of sound [m/s] | viscosity [mPa·s]
293.15 K | 789.75 | 1162 | 1.187
298.15 K | 785.46 | 1145 | 1.082
303.15 K | 781.15 | 1128 | 0.987

CCO [ethanol] + CC(=O)O
[2], x2 = 0
Conditions | mass density [kg/m3] | speed of sound [m/s] | viscosity [mPa·s]
293.15 K | 789.75 | 1162 | 1.187
298.15 K | 785.46 | 1145 | 1.082
303.15 K | 781.15 | 1128 | 0.987

CCOC(C)=O [ethyl acetate]
[1]
Conditions | mass density [kg/m3] | speed of sound [m/s] | viscosity [mPa·s]
293.15 K | 900.52 | 1163 | 0.452
298.15 K | 894.43 | 1140 | 0.426
303.15 K | 888.3 | 1118 | 0.403

CCOC(C)=O [ethyl acetate] + CC(=O)O
[2], x2 = 0
Conditions | mass density [kg/m3] | speed of sound [m/s] | viscosity [mPa·s]
293.15 K | 900.52 | 1163 | 0.452
298.15 K | 894.43 | 1140 | 0.426
303.15 K | 888.3 | 1118 | 0.403

CO [methanol]
[1]
Conditions | mass density [kg/m3] | speed of sound [m/s] | viscosity [mPa·s]
293.15 K | 791.9 | 1121 | 0.585
298.15 K | 787.2 | 1104 | 0.545
303.15 K | 782.48 | 1088 | 0.508

CO [methanol] + CC(=O)O
[2], x2 = 0
Conditions | mass density [kg/m3] | speed of sound [m/s] | viscosity [mPa·s]
293.15 K | 791.9 | 1121 | 0.585
298.15 K | 787.2 | 1104 | 0.545
303.15 K | 782.48 | 1088 | 0.508

COC(C)=O [methyl ethanoate]
[1]
Conditions | mass density [kg/m3] | speed of sound [m/s] | viscosity [mPa·s]
293.15 K | 933.56 | 1174 | 0.386
298.15 K | 926.98 | 1151 | 0.367
303.15 K | 920.34 | 1128 | 0.348

COC(C)=O [methyl ethanoate] + CC(=O)O
[2]
Conditions | mass density, 293.15 K [kg/m3] | mass density, 298.15 K [kg/m3] | mass density, 303.15 K [kg/m3] | speed of sound, 293.15 K [m/s] | speed of sound, 298.15 K [m/s] | speed of sound, 303.15 K [m/s] | viscosity, 293.15 K [mPa·s] | viscosity, 298.15 K [mPa·s] | viscosity, 303.15 K [mPa·s]
x2 = 0 | 933.56 | 926.98 | 920.34 | 1174 | 1151 | 1128 | 0.386 | 0.367 | 0.348
x2 = 0.0496 | 938.74 | 932.23 | 925.65 | 1177 | 1154 | 1131 | 0.401 | 0.381 | 0.362
x2 = 0.0956 | 943.44 | 936.98 | 930.46 | 1177 | 1155 | 1133 | 0.417 | 0.395 | 0.376
x2 = 0.195 | 953.14 | 946.77 | 940.34 | 1177 | 1155 | 1133 | 0.46 | 0.436 | 0.412
x2 = 0.3007 | 963.86 | 957.58 | 951.24 | 1176 | 1154 | 1133 | 0.506 | 0.48 | 0.453
x2 = 0.3902 | 973.23 | 967.02 | 960.77 | 1174 | 1153 | 1132 | 0.552 | 0.521 | 0.492
x2 = 0.4937 | 984.52 | 978.4 | 972.24 | 1172 | 1151 | 1131 | 0.617 | 0.58 | 0.547
x2 = 0.5953 | 996.15 | 990.1 | 984.03 | 1169 | 1149 | 1129 | 0.691 | 0.646 | 0.608
x2 = 0.6894 | 1007.51 | 1001.55 | 995.56 | 1166 | 1147 | 1127 | 0.775 | 0.725 | 0.68
x2 = 0.7943 | 1020.92 | 1015.05 | 1009.16 | 1162 | 1143 | 1124 | 0.894 | 0.834 | 0.782
x2 = 0.8987 | 1034.93 | 1029.17 | 1023.39 | 1156 | 1138 | 1120 | 1.037 | 0.962 | 0.896
x2 = 0.9502 | 1042.19 | 1036.49 | 1030.77 | 1153 | 1136 | 1118 | 1.12 | 1.037 | 0.964

O [water]
[1]
Conditions | viscosity [mPa·s]
293.15 K | 1.003
298.15 K | 0.89
303.15 K | 0.797

O [water] + CC(=O)O
[2], x2 = 0
Conditions | viscosity [mPa·s]
293.15 K | 1.003
298.15 K | 0.89
303.15 K | 0.797
